# According to publication PMC11876601 (Molecular Systems Biology, 2025):
# Like-named read-outs stand apart in the source and are kept apart here.
# Tests used:
# Assay in all cases: cells
# AsPC-1 [1] = test system: AsPC-1; parameters: ATPlite luminescence viability of PDAC cell lines, 11-dose single-agent curves, 4-parameter fit; details: Homo sapiens, ASPC1, 72 h, read-out: EC50 [nM]
# Procedure, shortened: (§1)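 cells (1000 to 5000 per well) seeded 24 h before drug addition in a combination screen at 0.2% final DMSO. Controls were drug-free wells (negative) and 5 µM staurosporine (positive).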
# BxPC-3 [2] = test system: BxPC-3; parameters: ATPlite luminescence viability of PDAC cell lines, 11-dose single-agent curves, 4-parameter fit; details: Homo sapiens, BXPC-3, 72 h, read-out: EC50 [nM]
# Procedure, shortened: as §1
# Colo-357 [3] = test system: Colo-357; parameters: ATPlite luminescence viability of PDAC cell lines, 11-dose single-agent curves, 4-parameter fit; details: Homo sapiens, COLO357, 72 h, read-out: EC50 [nM]
# Procedure, shortened: as §1
# Dan-G [4] = test system: Dan-G; parameters: ATPlite luminescence viability of PDAC cell lines, 11-dose single-agent curves, 4-parameter fit; details: 72 h, read-out: EC50 [nM]
# Procedure, shortened: as §1
# MiaPaCa-2 [5] = test system: MiaPaCa-2; parameters: ATPlite luminescence viability of PDAC cell lines, 11-dose single-agent curves, 4-parameter fit; details: Homo sapiens, MIA PaCa-2, 72 h, read-out: EC50 [nM]
# Procedure, shortened: as §1
# PaTu-8988-T [6] = test system: PaTu-8988-T; parameters: ATPlite luminescence viability of PDAC cell lines, 11-dose single-agent curves, 4-parameter fit; details: Homo sapiens, PaTu 8988t, 72 h, read-out: EC50 [nM]
# Procedure, shortened: as §1
# Capan-1 = test system: Capan-1; parameters: Viability of PDAC cell lines, ATPlite luminescence, 11-dose single-agent curve fit; details: Homo sapiens, CAPAN-1, 72 h, read-out: EC50 [nM]
# Procedure, shortened: (§2)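 cells (1000 to 5000 per well) seeded 24 h before drug addition in a screen at 0.2% final DMSO. Controls were drug-free wells (negative) and 5 µM staurosporine (positive).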
# FAMPAC [7] = test system: FAMPAC; parameters: Viability of PDAC cell lines, ATPlite luminescence, 11-dose single-agent curve fit; details: 72 h, read-out: EC50 [nM]
# Procedure, shortened: as §2
# HPDE [8] = test system: HPDE; parameters: Viability of PDAC cell lines, ATPlite luminescence, 11-dose single-agent curve fit; details: HPDE, 72 h, read-out: EC50 [nM]
# Procedure, shortened: as §2
# HuP-T4 = test system: HuP-T4; parameters: Viability of PDAC cell lines, ATPlite luminescence, 11-dose single-agent curve fit; details: Homo sapiens, HuP-T4, 72 h, read-out: EC50 [nM]
# Procedure, shortened: as §2
# PANC-1 = test system: PANC-1; parameters: Viability of PDAC cell lines, ATPlite luminescence, 11-dose single-agent curve fit; details: Homo sapiens, PANC-1, 72 h, read-out: EC50 [nM]
# Procedure, shortened: as §2
# PSN-1 [9] = test system: PSN-1; parameters: Viability of PDAC cell lines, ATPlite luminescence, 11-dose single-agent curve fit; details: Homo sapiens, PSN1, 72 h, read-out: EC50 [nM]
# Procedure, shortened: as §2
# Suit2-07 [10] = test system: Suit2-07; parameters: Viability of PDAC cell lines, ATPlite luminescence, 11-dose single-agent curve fit; details: 72 h, read-out: EC50 [nM]
# Procedure, shortened: as §2
# HPDE [11] = test system: HPDE; parameters: ATPlite luminescence viability of PDAC cell lines, 11-dose single-agent curves, 4-parameter fit; details: HPDE, 72 h, read-out: EC50 [nM]
# Procedure, shortened: as §1
# AsPC-1 [12] = test system: AsPC-1; parameters: Viability of PDAC cell lines, ATPlite luminescence, 11-dose single-agent curve fit; details: Homo sapiens, ASPC1, 72 h, read-out: EC50 [nM]
# Procedure, shortened: as §2
# Colo-357 [13] = test system: Colo-357; parameters: Viability of PDAC cell lines, ATPlite luminescence, 11-dose single-agent curve fit; details: Homo sapiens, COLO357, 72 h, read-out: EC50 [nM]
# Procedure, shortened: as §2
# Dan-G [14] = test system: Dan-G; parameters: Viability of PDAC cell lines, ATPlite luminescence, 11-dose single-agent curve fit; details: 72 h, read-out: EC50 [nM]
# Procedure, shortened: as §2
# MiaPaCa-2 [15] = test system: MiaPaCa-2; parameters: Viability of PDAC cell lines, ATPlite luminescence, 11-dose single-agent curve fit; details: Homo sapiens, MIA PaCa-2, 72 h, read-out: EC50 [nM]
# Procedure, shortened: as §2
# PaTu-8988-T [16] = test system: PaTu-8988-T; parameters: Viability of PDAC cell lines, ATPlite luminescence, 11-dose single-agent curve fit; details: Homo sapiens, PaTu 8988t, 72 h, read-out: EC50 [nM]
# Procedure, shortened: as §2
# FAMPAC [17] = test system: FAMPAC; parameters: ATPlite luminescence viability of PDAC cell lines, 11-dose single-agent curves, 4-parameter fit; details: 72 h, read-out: EC50 [nM]
# Procedure, shortened: as §1
# PSN-1 [18] = test system: PSN-1; parameters: ATPlite luminescence viability of PDAC cell lines, 11-dose single-agent curves, 4-parameter fit; details: Homo sapiens, PSN1, 72 h, read-out: EC50 [nM]
# Procedure, shortened: as §1
# Suit2-07 [19] = test system: Suit2-07; parameters: ATPlite luminescence viability of PDAC cell lines, 11-dose single-agent curves, 4-parameter fit; details: 72 h, read-out: EC50 [nM]
# Procedure, shortened: as §1
# BxPC-3 [20] = test system: BxPC-3; parameters: Viability of PDAC cell lines, ATPlite luminescence, 11-dose single-agent curve fit; details: Homo sapiens, BXPC-3, 72 h, read-out: EC50 [nM]
# Procedure, shortened: as §2
Structure (SMILES),EC50 (AsPC-1 [1]),EC50 (BxPC-3 [2]),EC50 (Dan-G [4]),EC50 (MiaPaCa-2 [5]),EC50 (PaTu-8988-T [6]),EC50 (Capan-1),EC50 (FAMPAC [7]),EC50 (HPDE [8]),EC50 (HuP-T4),EC50 (PANC-1),EC50 (PSN-1 [9]),EC50 (Suit2-07 [10]),EC50 (HPDE [11]),EC50 (AsPC-1 [12]),EC50 (Colo-357 [13]),EC50 (Dan-G [14]),EC50 (MiaPaCa-2 [15]),EC50 (PaTu-8988-T [16]),EC50 (PSN-1 [18]),EC50 (Suit2-07 [19]),other results
Cc1nc(NC(=O)N2CCC[C@H]2C(N)=O)sc1-c1ccnc(C(C)(C)C(F)(F)F)c1 [Alpelisib],3740 nM,1640 nM,661 nM,1400 nM,3930 nM,5110 nM,3750 nM,7680 nM,21.8 nM,> 10000 nM,269 nM,2060 nM,–,–,–,–,–,–,–,–,EC50 (Colo-357 [3]): 355 nM
C=CC(=O)N1CCC([C@@H]2CCNc3c(C(N)=O)c(-c4ccc(Oc5ccccc5)cc4)nn32)CC1 [Zanubrutinib],–,> 10000 nM,–,–,–,2290 nM,75.9 nM,–,796 nM,3410 nM,132 nM,7180 nM,3010 nM,300 nM,2200 nM,578 nM,9130 nM,547 nM,–,–,–
COCc1c(-c2cc3cc(C)cc(OC)c3s2)c2c(N)ncnn2c1CN1CCNC(=O)C1 [Rogaratinib],3450 nM,4270 nM,3460 nM,2050 nM,3870 nM,5610 nM,–,7330 nM,24.2 nM,3980 nM,–,–,–,–,3150 nM,–,–,–,3270 nM,> 10000 nM,EC50 (FAMPAC [17]): 3300 nM
COC(=O)N[C@@H](C)CNc1nccc(-c2cn(C(C)C)nc2-c2cc(Cl)cc(NS(C)(=O)=O)c2F)n1 [Encorafenib],3210 nM,296 nM,620 nM,1290 nM,–,453 nM,–,1140 nM,–,6620 nM,–,–,–,–,–,–,–,1220 nM,800 nM,1790 nM,EC50 (Colo-357 [3]): 1020 nM; EC50 (FAMPAC [17]): 943 nM
CNC(=O)c1cccc2cc(Oc3ccnc4cc(OCC5(N)CC5)c(OC)cc34)ccc12 [Lucitanib],–,–,–,–,–,> 10000 nM,> 10000 nM,–,> 10000 nM,2920 nM,8180 nM,5330 nM,9210 nM,8920 nM,> 10000 nM,665 nM,> 10000 nM,5920 nM,–,–,EC50 (BxPC-3 [20]): 9500 nM
COC(=O)c1ccc2c(c1)NC(=O)/C2=C(\Nc1ccc(N(C)C(=O)CN2CCN(C)CC2)cc1)c1ccccc1 [Nintedanib],> 10000 nM,4940 nM,6960 nM,1030 nM,6690 nM,10200 nM,–,1550 nM,146 nM,77.7 nM,–,–,–,–,9780 nM,–,–,–,8030 nM,> 10000 nM,EC50 (FAMPAC [17]): > 10000 nM
CC(C)N1CCN(Cc2cnc(-c3cc(-c4cccc5[nH]ccc45)cc4[nH]ncc34)o2)CC1 [Nemiralisib],> 10000 nM,4420 nM,–,> 10000 nM,–,10.5 nM,> 10000 nM,7360 nM,3260 nM,> 10000 nM,5830 nM,–,–,–,3010 nM,5040 nM,–,811 nM,–,> 10000 nM,–
COc1cc(CCc2cc(NC(=O)c3ccc(N4C[C@@H](C)N[C@@H](C)C4)cc3)n[nH]2)cc(OC)c1 [AZD4547],> 10000 nM,6320 nM,–,> 10000 nM,–,0.79 nM,> 10000 nM,5300 nM,9460 nM,5350 nM,–,–,–,–,1080 nM,0.1 nM,–,7380 nM,8650 nM,9040 nM,–
C=CC(=O)N1CCC[C@@H](n2nc(-c3ccc(Oc4ccccc4)cc3)c3c(N)ncnc32)C1 [Ibrutinib],–,–,56.6 nM,–,–,317 nM,28.3 nM,–,54.2 nM,1170 nM,1100 nM,396 nM,521 nM,46.1 nM,373 nM,–,1840 nM,166 nM,–,–,EC50 (BxPC-3 [20]): 128 nM
